Measurements published in PubChem BioAssay AID256 (DTP/NCI, 2004).
Where “and” joins values, the source holds several entries; their conditions need not be identical. Identical values can stand only once. Toxic doses and inconclusive results are not listed. The calls were made as follows: active = survival T/C of 150% or more; inactive = T/C below 125% in these data.

Test system: CD2F1 mice, L1210 leukemia ip, survival T/C
Assay: NCI In Vivo Anticancer Drug Screen. Data for tumor model L1210 Leukemia (intraperitoneal) in CD2F1 (CDF1) mice
Conditions: higher = longer survival
Procedure, shortened: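 Mice carrying a transplanted tumor received test compound or vehicle alone. The value is the measurement in the treated group divided by that in the vehicle-treated control group.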

[1] = endpoint: mean survival time, dose: 12.5 mg/kg/injection, schedule: Q01DX009 (ip), vehicle: saline with Tween-80
[2] = endpoint: mean survival time, dose: 25.0 mg/kg/injection, schedule: Q01DX009 (ip), vehicle: saline with Tween-80
[3] = endpoint: mean survival time, dose: 50.0 mg/kg/injection, schedule: Q01DX009 (ip), vehicle: saline with Tween-80
[4] = endpoint: mean survival time, dose: 100.0 mg/kg/injection, schedule: Q04DX003 (ip), vehicle: saline with Tween-80
[5] = endpoint: mean survival time, dose: 100.0 mg/kg/injection, schedule: Q01DX009 (ip), vehicle: saline with Tween-80
[6] = endpoint: mean survival time, dose: 200.0 mg/kg/injection, schedule: Q01DX009 (ip), vehicle: saline with Tween-80
[7] = endpoint: mean survival time, dose: 400.0 mg/kg/injection, schedule: Q01DX009 (ip), vehicle: saline with Tween-80
[8] = endpoint: mean survival time, dose: 200.0 mg/kg/injection, schedule: Q04DX003 (ip), vehicle: saline with Tween-80
[9] = endpoint: mean survival time, dose: 400.0 mg/kg/injection, schedule: Q04DX003 (ip), vehicle: saline with Tween-80
[10] = endpoint: mean survival time, dose: 100.0 mg/kg/injection, schedule: Q01DX001 (ip), vehicle: saline with Tween-80
[11] = endpoint: mean survival time, dose: 200.0 mg/kg/injection, schedule: Q01DX001 (ip), vehicle: saline with Tween-80

Measured: T/C

O=C(CCl)N1CCC2(CC1)SSC1(CCN(C(=O)CCl)CC1)S2
inactive: [1] 94 % of control | [2] 93 % of control | endpoint: mean survival time, dose: 25.0 mg/kg/injection, schedule: Q04DX003 (ip), vehicle: saline with Tween-80 89 % of control | [3] 97 % of control | endpoint: mean survival time, dose: 50.0 mg/kg/injection, schedule: Q04DX003 (ip), vehicle: saline with Tween-80 100 % of control | [4] 93 % of control

CCOC(=O)C(C=O)(CC)C(=O)OCC
inactive: [5] 97 % of control | [6] 94 % of control | [7] 103 % of control

CN(C)C=Nc1ccc(C#N)cc1
inactive: endpoint: mean survival time, dose: 50.0 mg/kg/injection, schedule: Q01DX001 (ip), vehicle: saline 97 % of control | endpoint: mean survival time, dose: 100.0 mg/kg/injection, schedule: Q01DX001 (ip), vehicle: saline 97 % of control

N/C(=N\N=C(c1ccccc1)c1ccccc1)N[N+](=O)[O-]
inactive: [4] 97 % of control | [8] 100 % of control | [9] 103 % of control

Cc1ccc(C#N)c2c1CCC2
inactive: endpoint: mean survival time, dose: 100.0 mg/kg/injection, schedule: Q01DX001 (ip), vehicle: Klucel (hydroxypropylcellulose) (HPC) 103 % of control | endpoint: mean survival time, dose: 200.0 mg/kg/injection, schedule: Q01DX001 (ip), vehicle: Klucel (hydroxypropylcellulose) (HPC) 95 % of control | endpoint: mean survival time, dose: 400.0 mg/kg/injection, schedule: Q01DX001 (ip), vehicle: Klucel (hydroxypropylcellulose) (HPC) 103 % of control

COc1cc2c[n+](C)c3c4cc5c(cc4ccc3c2cc1OC)OCO5
inactive: endpoint: mean survival time, dose: 1.0 mg/kg/injection, schedule: Q01DX009 (ip), vehicle: other 104 % of control | endpoint: mean survival time, dose: 1.0 mg/kg/injection, schedule: Q01DX009 (ip), vehicle: water 102 % of control and 104 % of control | endpoint: mean survival time, dose: 2.0 mg/kg/injection, schedule: Q01DX009 (ip), vehicle: other 109 % of control | endpoint: mean survival time, dose: 2.0 mg/kg/injection, schedule: Q01DX009 (ip), vehicle: water 117 % of control and 112 % of control | endpoint: mean survival time, dose: 4.0 mg/kg/injection, schedule: Q01DX009 (ip), vehicle: other 104 % of control | endpoint: mean survival time, dose: 4.0 mg/kg/injection, schedule: Q01DX009 (ip), vehicle: water 116 % of control and 120 % of control | endpoint: mean survival time, dose: 6.25 mg/kg/injection, schedule: Q01DX009 (ip), vehicle: saline with Tween-80 120 % of control | endpoint: mean survival time, dose: 8.0 mg/kg/injection, schedule: Q01DX009 (ip), vehicle: other 115 % of control | endpoint: mean survival time, dose: 8.0 mg/kg/injection, schedule: Q01DX009 (ip), vehicle: water 115 % of control and 121 % of control | endpoint: mean survival time, dose: 8.0 mg/kg/injection, schedule: Q04DX003 (ip), vehicle: water 108 % of control | [1] 114 % of control | endpoint: mean survival time, dose: 16.0 mg/kg/injection, schedule: Q01DX009 (ip), vehicle: other 116 % of control | endpoint: mean survival time, dose: 16.0 mg/kg/injection, schedule: Q01DX009 (ip), vehicle: water 118 % of control and 120 % of control | endpoint: mean survival time, dose: 16.0 mg/kg/injection, schedule: Q04DX003 (ip), vehicle: water 117 % of control | [2] 104 % of control | endpoint: mean survival time, dose: 32.0 mg/kg/injection, schedule: Q04DX003 (ip), vehicle: water 120 % of control | endpoint: mean survival time, dose: 40.0 mg/kg/injection, schedule: Q01DX009 (ip), vehicle: water 115 % of control and 116 % of control | [3] 98 % of control | endpoint: mean survival time, dose: 64.0 mg/kg/injection, schedule: Q04DX003 (ip), vehicle: water 121 % of control | endpoint: mean survival time, dose: 80.0 mg/kg/injection, schedule: Q01DX009 (ip), vehicle: water 103 % of control | endpoint: mean survival time, dose: 128.0 mg/kg/injection, schedule: Q04DX003 (ip), vehicle: water 101 % of control

COC(=O)c1ccc(C(=O)CC(=O)c2ccccc2)cc1
inactive: endpoint: median survival time, dose: 25.0 mg/kg/injection, schedule: Q04DX003 (ip), vehicle: saline with Tween-80 100 % of control | endpoint: median survival time, dose: 50.0 mg/kg/injection, schedule: Q04DX003 (ip), vehicle: saline with Tween-80 88 % of control | endpoint: median survival time, dose: 100.0 mg/kg/injection, schedule: Q04DX003 (ip), vehicle: saline with Tween-80 88 % of control | endpoint: median survival time, dose: 200.0 mg/kg/injection, schedule: Q04DX003 (ip), vehicle: saline with Tween-80 88 % of control

O=C1/C(=C/c2ccc(Cl)c(Cl)c2)CCC/C1=C\c1ccc(Cl)c(Cl)c1
inactive: endpoint: mean survival time, dose: 100.0 mg/kg/injection, schedule: Q04DX003 (ip), vehicle: Klucel (hydroxypropylcellulose) (HPC) 98 % of control | endpoint: mean survival time, dose: 200.0 mg/kg/injection, schedule: Q04DX003 (ip), vehicle: Klucel (hydroxypropylcellulose) (HPC) 100 % of control | endpoint: mean survival time, dose: 400.0 mg/kg/injection, schedule: Q04DX003 (ip), vehicle: Klucel (hydroxypropylcellulose) (HPC) 98 % of control

CCCCCCCCC(O)CCCCCCCCC(=O)O (stereo unspecified)
inactive: [10] 93 % of control | [11] 87 % of control | endpoint: mean survival time, dose: 400.0 mg/kg/injection, schedule: Q01DX001 (ip), vehicle: saline with Tween-80 87 % of control

CN(C)[C@@H]1C(=O)C(C(=O)NCNC(CO)(CO)CO)=C(O)[C@@]2(O)C(=O)C3=C(O)c4c(O)cccc4[C@@](C)(O)[C@H]3C[C@@H]12
inactive: endpoint: mean survival time, dose: 200.0 mg/kg/injection, schedule: Q01DX009 (ip), vehicle: saline 93 % of control | endpoint: mean survival time, dose: 264.0 mg/kg/injection, schedule: Q01DX009 (ip), vehicle: acetone 97 % of control | endpoint: mean survival time, dose: 300.0 mg/kg/injection, schedule: Q01DX009 (ip), vehicle: saline 98 % of control | endpoint: mean survival time, dose: 400.0 mg/kg/injection, schedule: Q01DX009 (ip), vehicle: acetone 92 % of control

O=C(CCCl)OCCCl
inactive: [4] 102 % of control | [8] 92 % of control

C=C(Br)CNC(=O)CCCl
inactive: endpoint: mean survival time, dose: 1.56 mg/kg/injection, schedule: Q01DX009 (ip), vehicle: other 102 % of control | endpoint: mean survival time, dose: 3.13 mg/kg/injection, schedule: Q01DX009 (ip), vehicle: other 103 % of control | endpoint: mean survival time, dose: 6.25 mg/kg/injection, schedule: Q01DX009 (ip), vehicle: other 100 % of control | endpoint: mean survival time, dose: 6.25 mg/kg/injection, schedule: Q04DX003 (ip), vehicle: other 103 % of control | endpoint: mean survival time, dose: 12.5 mg/kg/injection, schedule: Q04DX003 (ip), vehicle: other 100 % of control | endpoint: mean survival time, dose: 25.0 mg/kg/injection, schedule: Q04DX003 (ip), vehicle: other 105 % of control

C=CCOP(=O)(OCC=C)C1(Cl)C(Cl)=C(Cl)C(=O)C(Cl)=C1Cl
inactive: endpoint: mean survival time, dose: 25.0 mg/kg/injection, schedule: Q01DX009 (ip), vehicle: saline + alcohol 96 % of control | endpoint: mean survival time, dose: 50.0 mg/kg/injection, schedule: Q01DX009 (ip), vehicle: saline + alcohol 96 % of control | endpoint: mean survival time, dose: 100.0 mg/kg/injection, schedule: Q01DX009 (ip), vehicle: saline + alcohol 96 % of control | [5] 100 % of control

O=C(Nc1cccc(O)c1)C1CC1
inactive: [10] 105 % of control | [11] 94 % of control

CC(C)SC(C(=O)O)(c1ccccc1)c1ccccc1
inactive: endpoint: mean survival time, dose: 75.0 mg/kg/injection, schedule: Q01DX001 (ip), vehicle: other 100 % of control | endpoint: mean survival time, dose: 150.0 mg/kg/injection, schedule: Q01DX001 (ip), vehicle: other 98 % of control | endpoint: mean survival time, dose: 300.0 mg/kg/injection, schedule: Q01DX001 (ip), vehicle: other 90 % of control

CC(C)(C)C(=O)CC(O)(C(F)(F)Cl)C(F)(F)Cl
inactive: [3] 111 % of control | [5] 116 % of control and 108 % of control | [6] 92 % of control and 95 % of control | [7] 113 % of control

O=c1[nH]c(C(Cl)(Cl)Cl)nc2ccc(Cl)cc12
inactive: [4] 101 % of control | [8] 96 % of control | [9] 98 % of control
